The values below come from patent US6146859A, “Facile synthesis of L-homophenylalanine by equilibrium shift enzymatic reaction using engineered tyrosine aminotransferase” (Academia Sinica, priority 1999, dated 2000).

Structures are written as SMILES. Values joined by “and” are separate entries in the source; they are usually repeats but may differ in a detail not shown here. Identical values can stand only once.

T2 sequence (P04693 whole entry): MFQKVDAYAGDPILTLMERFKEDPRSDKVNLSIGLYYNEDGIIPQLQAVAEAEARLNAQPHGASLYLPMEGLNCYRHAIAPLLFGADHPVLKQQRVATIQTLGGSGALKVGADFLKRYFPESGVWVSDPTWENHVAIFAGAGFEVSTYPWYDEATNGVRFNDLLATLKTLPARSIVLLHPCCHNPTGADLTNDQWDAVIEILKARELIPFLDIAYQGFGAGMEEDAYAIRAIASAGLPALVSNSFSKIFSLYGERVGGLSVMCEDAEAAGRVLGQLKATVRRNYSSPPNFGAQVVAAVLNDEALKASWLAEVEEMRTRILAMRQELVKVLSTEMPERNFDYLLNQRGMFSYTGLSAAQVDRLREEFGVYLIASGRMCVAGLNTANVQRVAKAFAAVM

In one series the target is T1, genetically engineered tyrosine aminotransferase (Escherichia coli, UniProt P04693).
T1 construct: made in house; host or cells: E. coli
T1 sequence (P04693 whole entry, change not shown): as the sequence (P04693 whole entry) above
Put plainly: Tyrosine aminotransferase-catalyzed amino transfer to 2-oxo-4-phenylbutyric acid with various amino acids as amino donors. Type of series: biochemical, E. coli. Details: initial rate: unit not given here. The settings on record: amino acid 0.20 mmol, 2-oxo-4-phenylbutyric acid 0.10 mmol, enzyme 1 unit, 5 mL Tris-HCl 20 mM pH 8.5, 37° C., 5 min. From the text: Production of tyrosine aminotransferase: Genetically engineered tyrosine aminotransferase is preferably produced by overexpressing the gene product in E. coli according to the method described by Kuramitsu et al. in Biochem, Biophys. Res. Commu., 1989, 133:134, the contents of which are herein incorporated by references in their entirety. One unit of enzyme activity was defined as the activity that produces 1 μmol of product per minute.
The enzymatic activities of the genetically engineered tyrosine aminotransferase as described above were tested using various amino acids as amino donors and the results are shown in Table I. Each enzyme-catalyzed reaction was carried out in a mixture (5 mL) of Tris-HCl buffer (20 mM, pH 8.5) containing the tested amino acid (0.20 mmol) and 2-oxo-4-phenylbutyric acid (0.10 mmol) and the enzyme (1 unit) at 37° C. for 5 min. The initial rate was measured by calculating the increase of homophenylalanine concentration in each reaction based on HPLC analysis.
`C[C@H](N)C(=O)O` [L-Ala, alanine] had a turnover rate of 0.042 mM/min.unit.

Compound `NCCCC[C@H](N)C(=O)O` [L-Lys, lysine] came in with a turnover rate of 0.046 mM/min.unit.

The compound `CC(C)[C@H](N)C(=O)O` [L-Val, valine] had a turnover rate of 0.058 mM/min.unit.

For `N[C@@H](CCC(=O)O)C(=O)O` [L-Glu, glutamic acid], the turnover rate is 0.539 mM/min.unit and 0.54 mM/min.unit.

`N[C@@H](CO)C(=O)O` [L-Ser, serine] displayed a turnover rate of 0.002 mM/min.unit.

`CC[C@H](C)[C@H](N)C(=O)O` [L-Ile, isoleucine]: the turnover rate is given as 0.005 mM/min.unit.

As to `N[C@@H](Cc1ccc(O)cc1)C(=O)O` [L-Tyr, tyrosine], the turnover rate was 0.619 mM/min.unit and 0.62 mM/min.unit.

Take `C[C@@H](O)[C@H](N)C(=O)O` [L-Thr, threonine]: the turnover rate worked out at 0.009 mM/min.unit.

As for `N[C@@H](Cc1c[nH]cn1)C(=O)O` [L-His, histidine], the turnover rate is on record as 0.089 mM/min.unit.

With `N[C@@H](Cc1ccccc1)C(=O)O` [L-Phe, phenylalanine], the turnover rate is 0.605 mM/min.unit and 0.61 mM/min.unit.

Consider `NCC(=O)O` [L-Gly, glycine], for which the turnover rate is reported as 0.027 mM/min.unit.

`CC(C)C[C@H](N)C(=O)O` [L-Leu, leucine]: the turnover rate was 0.106 mM/min.unit.

The compound `N[C@@H](CC(=O)O)C(=O)O` [L-Asp, aspartic acid] showed a turnover rate of 0.372 mM/min.unit.

The compound `CSCC[C@H](N)C(=O)O` [L-Met, methionine] registered a turnover rate of 0.268 mM/min.unit.

The same series, now with this note: amino acid 0.20 mmol, 2-oxo-4-phenylbutyric acid 0.10 mmol, enzyme 1 unit, 5 mL Tris-HCl 20 mM pH 8.5, 37° C., 5 min; increase of homophenylalanine by HPLC.
On to `C[C@H](N)C(=O)O` [L-Ala, alanine], for which the initial rate is 0.23.

`NCCCC[C@H](N)C(=O)O` [L-Lys, lysine] showed an initial rate of 0.25.

Regarding `CC(C)[C@H](N)C(=O)O` [L-Val, valine], the initial rate came out at 0.32.

For `N[C@@H](CCC(=O)O)C(=O)O` [L-Glu, glutamic acid], the initial rate amounted to 2.96.

For the compound `N[C@@H](CO)C(=O)O` [L-Ser, serine], the initial rate came out at 0.01.

The compound `CC[C@H](C)[C@H](N)C(=O)O` [L-Ile, isoleucine] returned an initial rate of 0.03.

Take `N[C@@H](Cc1ccc(O)cc1)C(=O)O` [L-Tyr, tyrosine]: the initial rate is reported as 3.43.

As to `C[C@@H](O)[C@H](N)C(=O)O` [L-Thr, threonine], the initial rate was 0.05.

`N[C@@H](Cc1c[nH]cn1)C(=O)O` [L-His, histidine] yielded an initial rate of 0.49.

As for `N[C@@H](Cc1ccccc1)C(=O)O` [L-Phe, phenylalanine], the initial rate is recorded as 3.32.

The compound `NCC(=O)O` [L-Gly, glycine] showed an initial rate of 0.15.

On to `CC(C)C[C@H](N)C(=O)O` [L-Leu, leucine], for which the initial rate turned out to be 0.58.

As for `N[C@@H](CC(=O)O)C(=O)O` [L-Asp, aspartic acid], the initial rate came out at 2.04.

As to `CSCC[C@H](N)C(=O)O` [L-Met, methionine], the initial rate is listed as 1.47.

The next series addresses T2, tyrosine aminotransferase (Escherichia coli, UniProt P04693).
T2 construct: made in house; host or cells: E. coli
Put plainly: Equilibrium constants of the tyrosine aminotransferase-catalyzed reaction with 2-oxo-4-phenylbutyric acid and various amino acids. In kind it is biochemical, E. coli. To be noted: 2-oxo-4-phenylbutyric acid and the amino acid as substrates. Here is the method:
(§1) The HPLC chromatography is preferably conducted under the following conditions: column, 5C18; flow rate, 1 ml/min; gradient elution from an initial solution of 10% of eluent B+90% of eluent A to a final solution of 100% of eluent B in 20 minutes, wherein eluent A contains 5% ACN in 0.1% TFA and eluent B contains 95% ACN in 0.1% TFA; detector UV 214 nm. Initially, only peaks representing the starting materials L-glutamic acid having a retention time of 2.70 min and compound 1 having a retention time of 7.49 min appear in the HPLC graph as shown in the lower panel of FIG. 3. After adding the tyrosine aminotransferase, the areas of peaks corresponding to compound 1 and glutamic acid are decreased gradually, whereas areas of peaks corresponding to compound 2 having a retention time of 5.24 min and α-ketoglutamic acid having a retention time of 3.49 min are increased, as shown in the upper panel of FIG. 3. When the area of the peak representing compound 1 is reduced to one-fifth of the initial peak area, white precipitates appear in the reaction solution, while the peak area of compound 2 becomes stable and stays constant until the peak areas of compound 1 and glutamic acid are reduced to about baseline.
Take `N[C@@H](CCC(=O)O)C(=O)O` [L-Glu, glutamic acid]: the “Equilibrium Constant (Keq)” value stood at 0.345.

`N[C@@H](Cc1ccc(O)cc1)C(=O)O` [L-Tyr, tyrosine]: the “Equilibrium Constant (Keq)” value is given as 0.727.

Turning to `N[C@@H](Cc1ccccc1)C(=O)O` [L-Phe, phenylalanine], the “Equilibrium Constant (Keq)” value came out at 0.466.

Turning to `N[C@@H](CC(=O)O)C(=O)O` [L-Asp, aspartic acid], the “Equilibrium Constant (Keq)” value amounted to 0.187.

Tested on in the next series: not given
Test: not given
Type of series: physicochemical. The settings on record: pH 8.5. How it is done:
Synthesis of L-homophenylalanine: The synthesis is conducted preferably in a reaction mixture (5 ml) containing Tris-HCl buffer (50 mM, pH 8.5), compound 1 (10 mmole, the final concentration of compound 1 is about 2 M), L-Glu (10 mM), pyridoxal 5-phosphate (20 mM) at 37° C. The reaction is initiated by adding the tyrosine aminotransferase (5 units) to the reaction solution and monitored by HPLC.
as §1, with “When the area of the peak representing compound 1 is reduced to one-fifth of the initial peak area, white precipitates appear in the reaction solution, while the peak area of compound 2 becomes stable and stays constant until the peak areas of compound 1 and glutamic acid are reduced to about baseline.” left out
For `N[C@@H](CCc1ccccc1)C(=O)O` [compound 2, L-homophenylalanine], the “solubility in the reaction solution” value is “practically insoluble”.

For another series, the system named is microbial aminotransferase.
Test: not given
To be noted: at more than 0.2M; cited from earlier work.
Consider `O=C(O)C(=O)CCc1ccccc1` [2-oxo-4-phenylbutyric acid], for which the “inhibition of aminotransferase activity and conversion yield” value was “markedly inhibited”.
